# Assay results reported in patent US11951100B2, “Formulations of RBP4 inhibitors and methods of use” (Belite Bio, LLC, priority 2019, dated 2024).
# Key:
# [1] = Chemical stability at elevated temperatures (DSC heating, HPLC); assay type: physicochemical; details: Form C batch heated in DSC to a variety of temperatures and holding times
# Description: The API was heated to a variety of temperatures with several holding time periods in DSC. The resulted solids in DSC pan were extracted with DMSO. The solutions of API were prepared and injected into HPLC for determination of assay and related substances. […] One of possible solution to the API degradation in hot-melt extrusion might be the addition of a plasticizer which may lower the process temperature for maintaining chemical integrity of the API.
# [2] = DSC of crystalline Compound 1; assay type: physicochemical; details: ramp 10.0° C./min, 35° C.-275° C.
# Description: A sample of Compound 1 was analyzed by Differential Scanning Calorimetry using a TA Discovery DSC2500 with RCS90 chiller according to standard instrument procedures provided by manufacturer. Parameters used for the analysis are shown below in Table 3. Two replicates of the experiment were run with reproducible results. The resulting thermogram, shown in FIG. 10B, indicated a melting temperature (Tm) of Compound 1 of about 229° C. and no degradation up to 275° C.
# [3] = Solvent shift assay in FaSSIF; assay type: physicochemical
# Description: A solvent shift assay was performed in order to assess the effect of polymer excipients in improving supersaturation and sustainment in biorelevant media. Compound 1 was dissolved in DMSO to generate concentrated dissolved stock solution at 25 mg/mL. Stock API solution was then added to Fasted State Simulated Intestinal Fluid (FaSSIF) solution or FaSSIF solution containing predissolved polymer excipients to final concentration of compound 1 at 0.5 mg/mL. Ratios of Compound 1:polymer excipient in the final solution were either 20:80 or 40:60 (w/w). Samples were analyzed by HPLC to assess dynamic solubility of Compound 1 at various time points over a one hour period.
# [4] = Log D7.4, shake-flask partitioning; assay type: physicochemical; details: pH 7.4, shake-flask (Pion, Inc.)
# Description: (§1) Several biopharmaceutically relevant parameters of the API (Compound 1) were obtained for the API. […] Based on these two biopharmaceutical parameters, this compound is possibly a BCS Class II. Solubility enhancement is critical for bioavailability of the API for dosing. Therefore, to overcome the limitation from solubility, several experiments were conducted to assess various solubility enhancement approaches utilized in formulation development
# [5] = Non-sink dissolution, 0.1N HCl then FaSSIF; assay type: physicochemical
# Description: Sample of solid dispersions containing Compound 1 were analyzed in a non-sink dissolution experiment. Dispersion samples and neat Compound 1 were suspended in 0.1N HCl media at a concentration of 1000 ug/mL Compound 1. Concentration of each sample was then measured by centrifugation to pellet undissolved material, and an aliquot of the supernatant was assessed by HPLC for concentration. Material was then agitated in a Distek 2100 C Dissolution apparatus, USP Type II. Instrument was operated according to standard instrument procedures provided by manufacturer. Parameters used for the experiment are shown below in Table 11. After 30 minutes, the media was modulated to FaSSIF by adding equivalent volume of FaSSIF buffer with bile salts, bringing the theoretical concentration of compound 1 to 500 μg/mL. Dissolved concentration of Compound 1 in each sample was then assessed periodically by HPLC. […] These resulting values can be seen in Table 12 below.
# Caco-2 monolayers = experiment: Permeability through Caco-2 monolayers; assay type: in vitro ADME
# Description: as §1
smiles,measurement,setting,value
"CC(=O)N1CCc2c(C(=O)N3CCC(c4ccc(F)c(F)c4C(F)(F)F)CC3)n[nH]c2C1 [Compound 1, 1-(3-(4-(3,4-difluoro-2-(trifluoromethyl)phenyl)piperidine-1-carbonyl)-1,4,5,7-tetrahydro-6H-pyrazolo[3,4-c]pyridin-6-yl)ethan-1-one]","chemical stability at elevated temperatures, HPLC related substances",[1],impurity (with RRT=0.8 in HPLC) were present in all prepared samples except the control sample
same,no degradation up to (DSC),[2],275 °C
same,Total Drug AUC FaSSIF,"[3]; 0.5 mg/mL Compound 1 from DMSO stock into FaSSIF, one hour",13100 min*μgA/mL
same,Total Drug C60,"[3]; FaSSIF, 60 min",91.3 μgA/mL
same,logD,[4],3.23
same,AUC 5-180 IB,[5]; FaSSIF,1300 min*μgA/mL
same,C210,[5]; final concentration,7.1 μgA/mL
same,efflux,Caco-2 monolayers; apical-to-basolateral and basolateral-to-apical,no significant efflux
same,absorption potential classification,Caco-2 monolayers; apical-to-basolateral and basolateral-to-apical (Absorption Systems),high
same,BCS classification,"Caco-2 monolayers; based on Log D7.4 and Caco-2 data, possibly",BCS Class II
